Results taken from patent US7459479B2, “Benzylated PDE4 inhibitors” (Biolipox AB, priority 2000, dated 2008).

Columns and labels:
[1] = test system: PDE4 (human promonocytic U937 cells); assay: PDE4 inhibition, Phosphodiesterase [3H] cAMP SPA enzyme assay with U937 extract; assay type: biochemical; details: 1 μM [3H] cAMP
From the text: A test compound may be screened for activity against 11 of the major classes of mammalian cyclic nucleotide phosphodiesterase (termed PDE 1 through 11). These PDE's may use cAMP or cGMP or both cyclic nucleotides as substrates. […] PDE's for some of the various assays may be fully or partially purified from the following cells/tissues: PDE 1 (bovine heart), PDE 2 (human platelets), PDE 3 (human platelets), PDE4 (human promonocytic U937 cells) and PDE 5 (human platelets).
In the following descriptions, amounts are exemplary, and may be varied. […] Sonicated cell extracts are then centrifuged at 70,000 g for 30 minutes and supernatants removed. Sucrose is added to a final concentration of 0.25 M, then the extracts are aliquoted and stored at −80° C.
Briefly, the assay is run for 60 minutes at room temperature in 50 μL volumes in 1 μM [^3H] cAMP, 50 mM Tris Cl, 10 mM MgCl2 pH 7.5. U937 extract is added such that less than 10% of substrate was consumed. Test compound or vehicle is added to the desired concentration. […] Reactions are performed in duplicate. Reactions are terminated with 50 μl of Yttrium SPA beads and then counted on a Packard Scintillation counter (TopCount™) for 1 minute.

HARBS site of PDE4 [2] = biological target: T1, HARBS site of PDE4; assay: Displacement of [3H]-ROLIPRAM from the high affinity binding site (HARBS) in mouse brain membranes; details: for IC50: mouse brain membranes, [3H]-ROLIPRAM displacement
T1 construct: HARBS IC50; other: mouse brain membranes, [3H]-ROLIPRAM displacement; other: mouse brain; other: relative to ROLIPRAM (25, 26) or
Method: (§1) In order to perform this assay, female CD1 mice are sacrificed via the intraperitoneal injection of 100 μL ethanol, and the brain tissue is homogenized in 5 mL of ice-cold Tris-HCl, pH 8.00 supplemented with 1.2 mM MgCl2, 1 mM benzamidine (Sigma; Catalogue No. B 6506) and 0.1 mM PMSF (Sigma; Catalogue No. P 7626). The suspension is centrifuged twice at 30,000×G at 4° C. and then the supernatant discarded. The pellet is resuspended in buffer, and adjusted to a protein concentration of 0.5 mg/mL. Compounds to be tested are dissolved in DMSO and pipetted in triplicate into a 96 well microplate at concentrations ranging from 1 to 30,000 nM. […] The plate is incubated at 4° C. for 1 hour. Contents of the plate are aspirated through a Whatman GF/C filterplate, and rinsed with 4×200 μL ice-cold buffer. The plate is dried overnight, and then 30 μL of Microscint 20 (Packard; Catalogue No. 6013621) is added to each well, and plate is read in the scintillation counter with a sampling time of 2 minutes/well. […] Triplicate determinations should be performed at each concentration.

HARBS site of PDE4 [3] = assay: as above; details: for Ratio (PDE4/HARBS): ratio of PDE4 catalytic IC50 to HARBS IC50
Method: as §1

ferret model of emesis = assay: Emetic threshold after intravenous infusion in the ferret model of emesis; assay type: in vivo, ferret (Mustela putorius furo); details: for Emetic Threshold: 5 minute intravenous infusion, 3 hour observation
From the text: The most recognized pre-clinical animal model for emesis is the ferret. The ferret undergoes a very characteristic, reproducible and well-documented series of behavioral responses, including backward walking, pawing of the mouth, arching of the back, retching and vomiting when dosed with an emetogenic compound. With respect to PDE4 inhibitors their emetogenic potential has been correlated with the ability of compounds to bind to a conformer of the enzyme to which ROLIPRAM™ binds with nanomolar affinity (the HARBS binding site). The central nervous system (CNS) and emetic effects of PDE4 inhibitors are therefore thought in large part to be due to the interaction of these compounds with this particular conformer of PDE4 which is especially prevalent in both the central and peripheral nervous system as well as in cells of the lumen of the gastrointestinal tract (i.e., parietal cells of the stomach).
Adult male ferrets (Mustela putorius furo, sable, 0.75-1.5 kg, Marshall Farms, USA) were quarantined and acclimated to the testing facility for seven days prior to initiation of the study. For intravenous infusion dosing, a catheter was surgically inserted in the jugular vein a minimum of 14 hours prior to administration of test articles and the catheter was maintained for patency by flushing with heparin solution daily. After surgery for catheter insertion the ferrets were individually housed in cages. Animals were fasted 12-16 hours prior to dosing and during the behavioral assessment period. They were returned to normal food diet after the observation periods. Animals found acceptable for inclusion in the study were randomly assigned to the each of the study groups (n=3 for each of the two treatment groups and n=3 for the vehicle negative control group).
Test compounds (ROLIPRAM™ and Compound 25) were freshly dissolved on the day of dosing in the vehicle, polyethylene glycol (PEG) 200 (Sigma catalogue number P-3015), to the required concentration in order to achieve the target dose. Animals in the control (PEG 200) and treatment (ROLIPRAM™ or Compound 25) groups were administered the dosing formulation at 3 ml/kg by intravenous infusion over a 5 minute period via the catheter inserted in the jugular. Continual observation for signs of emetic behavior were begun for each of the animals in the study groups immediately following completion of the 5 minute dosing period and for a period of three hours. Sequential recordings of emetic behaviour were noted on a separate data collection sheet for each animal which included the time of onset of each event as well as the duration and nature of the event (i.e., retching, gagging, vomiting, back arching, backward walking etc.).
The target doses for each of the test articles are shown below in Table 3. If animals expressed no emetic behaviour at the lowest dosage then animals were dosed again with semi-log increasing doses of test article and the three hour observation period repeated until the emetic threshold (lowest of test doses causing emesis) was reached or until the highest of the 4 target doses was completed. There was a 24 hr. washout period between each of the successive ascending doses of test article to allow the compound to clear the animals' system. […] If the emetic response was minimal at a particular dose level then the next dose level could be performed to confirm the threshold level.

With `COc1ccc([C@]2(C#N)CC[C@@H](C(=O)O)CC2)cc1OC1CCCC1` [ARIFLO ™, reference compound] the IC50 [1] was 180 nM, the IC50 (HARBS site of PDE4 [2]) was 76 nM and the “Ratio (PDE4/HARBS)” value (HARBS site of PDE4 [3]) was 2.4.

Compound `COc1cc(CC2C(=O)NCC2c2ccc(OC)c(OC3CCCC3)c2)ccc1O` (centres unmarked) [Compound 26] has an IC50 [1] of 1490 nM.

In the case of `COc1ccc(C2CNC(=O)C2)cc1OC1CCCC1` (centres unmarked) [ROLIPRAM ™, reference compound], the “greater affinity to high affinity site than the concentration required for half-maximal inhibition of PDE4 catalytic activity” value (HARBS site of PDE4 [3]) is reported as 65 fold, the emetic signs (ferret model of emesis; 0.1 mg/kg i.v. infusion) is reported as “Emetic signs were also evident” and the “ferrets exhibiting a definite emetic response” value (ferret model of emesis; 0.3 mg/kg i.v. infusion, n=3) is reported as “one of the three ferrets”. For the same compound, the mild retches observed (ferret model of emesis; 0.3 mg/kg i.v., in one ferret, over 9 minutes starting at 10 minutes post-dosing) was 5 and the “Emetic Threshold” value (ferret model of emesis; ferrets) was 0.3 mg/kg.

For `COc1cc(CC2C(=O)NCC2c2ccc(OC)c(OC3CCCC3)c2)ccc1OCc1ccccc1` (centres unmarked) [Compound 25], the IC50 [1] was 400 nM, the IC50 (HARBS site of PDE4 [2]) was 361 nM and the “reduction of HARBS binding affinity relative to parent non-benzylated compound” value (HARBS site of PDE4 [2]; relative to ROLIPRAM (25, 26) or ARIFLO (41)) was 56 fold. The “Ratio (PDE4/HARBS)” value (HARBS site of PDE4 [3]) was 1.1, the “Emetic Threshold” value (ferret model of emesis; ferrets) was over 3.0 mg/kg and the “Emetic Threshold” value (ferret model of emesis; ferrets, listed as compound 25) was “greater than 3 mg/kg”. The “higher doses required to achieve emesis compared to rolipram” value (ferret model of emesis; ferrets, i.v. infusion) was “at least 10 fold” and the emetic behaviour (ferret model of emesis; up to and including highest dose level tested (3 mg/kg) i.v. infusion) was “no emetic behaviour whatsoever”.
